Data on 6 compounds can be found in patent US20100048523A1, “Compounds, Compositions and Methods for Treating Hormone-Dependent Maladies” (priority 2006, published 2010).

Test [1] relates to MCF-10A cells stably overexpressing ERα. In words: Growth assay (crystal violet) of ERα positive MCF-10A cells. In kind it is cell-based, human. As to conditions: for effect on estrogen-induced proliferation: ERα positive MCF-10A (p21+/+), with estrogen. As for the experimental part:
(§1) ERα positive MCF-10A (ERIN#9), pIRESpuro2 transfection control (−) control, and ERα positive MCF-10A p21−/− (1.6#4) cell lines were seeded in assay media (no EGF) and exposed to estrogen (E2), vehicle only, estrogen and Tamoxifen (E2+Tam), estrogen and Faslodex (E2+ICI), Tamoxifen alone (Tam) and Faslodex alone (ICI). Cells were grown for 1 week and stained with crystal violet. Results are representative of multiple clones including heterozygous controls, and assays were repeated three times for each clone.
(§2) The creation of a non-tumorigenic human breast epithelial cell line (MCF-10A) in which the p21 gene was deleted through targeted homologous recombination has been previously described. Because p21 has been implicated in Tamoxifen resistance, and the response of Tamoxifen in both parental MCF-10A cells and their p21−/− derivatives was assessed. MCF-10A cells are ERα negative and unresponsive to estrogen stimulation. In order to develop a model system to analyze the effects of estrogen and anti-estrogen signaling, MCF-10A cells and their p21−/− derivatives were stably transfected with a cDNA encoding for wild type ERα.
(§3) Unlike previous attempts to stably integrate ERα into the MCF-10A cell line, a cloning vector containing an internal ribosome entry site (IRES) was used to ensure high levels of wild type ERα expression. The full coding sequence of wild type ERα was PCR cloned into pIRESpuro2 (Clontech) and the absence of any coding mutations was verified by direct sequencing.
(§4) Cell lines were generated and grown with charcoal stripped dextran treated serum (Hyclone) and phenol red free medium to avoid any possible growth effects of estrogen in the medium.

The test system of test [2] is MCF-10A p21 knock out cell lines (ERα positive). The test can be described thus: Growth assay (crystal violet) of ERα positive MCF-10A p21−/− cells. It is filed as cell-based, human. As to conditions: for growth (cell proliferation) in response to the substance: ERα positive MCF-10A p21−/− (p21 null). As for the experimental part: as §1, §2, §3, §4
For test [3], the system named is p21−/− MCF-10A breast cancer cell lines. The test can be described thus: High-throughput cell-based growth inhibition screen, p21 knock-out (Erik) vs parental (Erin) cell lines. Further details: species or system human.
In test [4] the test system is metastatic breast cancer (skin). In words: Case report: metastatic breast cancer (skin) nodule under Tamoxifen. In kind it is in vivo, human.
For test [5], the system named is ER/PR positive breast cancers. As to conditions: adjuvant setting; cited from earlier work.

Consider `C[C@]12CC[C@@H]3c4ccc(O)cc4C[C@@H](CCCCCCCCC[S+]([O-])CCCC(F)(F)C(F)(F)F)[C@H]3[C@@H]1CC[C@@H]2O` (stereo partly shown) [Faslodex, fulvestrant], for which the “effect on estrogen-induced proliferation” value in test [1] is recorded as “inhibited”. Moreover, in test [2] (p21−/− cell lines, with estrogen), the “effect on proliferative effects of estrogen” value is recorded as “could still inhibit”.

Regarding `O=C(c1ccc(OCCN2CCCCC2)cc1)c1c(-c2ccc(O)cc2)sc2cc(O)ccc12` [Raloxifene], the “effect on estrogen-induced proliferation” value in test [1] is recorded as “behaved identically to Tamoxifen”. In addition, in test [2], the “growth (cell proliferation) in response to the substance” value was “not as pronounced as Tamoxifen's”.

In the case of `CC(=O)Oc1ccc2c(c1)CCC1C2CC[C@@]2(C)C1CCC21OCCO1` (stereo partly shown) [Compound 233-E09], the “targeting of tamoxifen resistant ER positive cells” value in test [3] is on record as “target tamoxifen resistant ER positive cells”.

Consider `CC/C(=C(\c1ccccc1)c1ccc(OCCN(C)C)cc1)c1ccccc1` [Tamoxifen], for which the “effect on estrogen-induced proliferation” value in test [1] is reported as “inhibited”. In addition, in test [2] (ERα positive MCF-10A p21−/−), the “growth inhibitory effect on p21 knock out cells” value is reported as “resistant to the growth inhibitory effects”. Also, in test [2], the “growth (cell proliferation) in response to the substance” value is recorded as “grew in response”. The “behaviour of recurrent skin nodule during Tamoxifen” value in test [4] (2003, in the presence of Tamoxifen) is given as “growing in the presence of Tamoxifen”. Besides, the “behaviour of skin nodule after Tamoxifen cessation” value in test [4] (one month after Tamoxifen cessation) is recorded as “went away after cessation”. Moreover, the “reduction of the risk of recurrence” value in test [5] is at most 47%.

As for estrogen, in test [1] (ERα positive MCF-10A, assay media without EGF, 1 week), the “proliferation in response to the substance” value is reported as “proliferated in response to estrogen”.

Take `CC12CCC3c4ccc(O)cc4CCC3C1CCC21OCCO1` (stereo not shown) [Compound 233-D4]: in test [3], the “targeting of tamoxifen resistant ER positive cells” value is reported as “target tamoxifen resistant ER positive cells”.
